According to paper PMC11721616, “Evaluation of N-alkyl isatins and indoles as acetylcholinesterase and butyrylcholinesterase inhibitors” (Journal of Enzyme Inhibition and Medicinal Chemistry, 2023):
Values joined by “and” are separate entries in the source; they are usually repeats but may differ in a detail not shown here. Identical values can stand only once. Like-named read-outs stand apart in the source and are kept apart here.

Legend:
AChE [1] = biological target: T1, AChE (Electrophorus electricus, UniProt O42275); conditions: values previously determined; cited from earlier work
T1 construct: purchased Sigma-Aldrich C2888

BChE [2] = biological target: T2, BChE (Equus caballus, UniProt P81908); test: biochemical; assay type: biochemical; conditions: for Selectivity: calculated as AChE IC50/BChE IC50
T2 construct: BChE (Lee Biosolutions, Product No. 130–10-1, from equine serum); purchased Lee Biosolutions 130–10-1; host or cells: equine serum
Protocol: (§1) Inhibition of AChE (Sigma-Aldrich, Product No. C2888, from Electrophorus electricus) and BChE (Lee Biosolutions, Product No. 130–10-1, from equine serum) was carried out as previously described by our lab[18]^,[19]. Briefly, compounds to be tested were prepared in sodium phosphate (dibasic) buffer (0.1 M) containing 10% DMSO and then diluted with phosphate buffer across the wells of a 96-well plate to reach desired concentrations (50 µL total well volume). AChE (50 µL, 400 U/L, in phosphate buffer) or BChE (50 µL, 400 U/L, in phosphate buffer) was added to the appropriate wells. After incubation, the enzymatic reaction was initiated with 100 µL of a 1:1 (v/v) solution of acetylthiocholine (ATC, 2 mM in phosphate buffer) or butyrylthiocholine (BTC, 2 mM in phosphate buffer) and 5,5′-dithiobis-(2-nitrobenzoic acid) (DTNB, 1 mM in phosphate buffer). […] IC50 values were calculated using GraphPad Prism 9.1.1.
(§2) The synthesis of the target molecules 4a-j and 5a-j was carried out in straightforward fashion by substitution of isatin or indole with iodomethane or 1-bromoalkanes in the presence of K2CO3 and DMF or NaOH and DMSO (Scheme 1). […] A DEPT135 experiment was run to differentiate this signal (negative) from the solvent (positive) (see supplementary data), as we have employed previosuly. The synthesised compounds were then evaluated as AChEI and BChEI using the established Ellman method. Results are reported as IC50 values in Table 1.

AChE [3] = biological target: T1, AChE; test: AChE inhibition assay (Ellman method); assay type: biochemical
Protocol: as §1, §2

BChE [4] = conditions: previously reported by Hyatt et al.; cited from earlier work
AChE [5] = conditions: previously reported by Hyatt et al.; cited from earlier work
BChE [6] = biological target: T2, BChE; conditions: read-out: BChE IC50; values previously determined; cited from earlier work
BChE [7] = biological target: T2, BChE; conditions: previously reported; cited from earlier work
BChE [8] = biological target: T2, BChE; test: Kinetics assay of BChE inhibition (Lineweaver-Burk plot); assay type: biochemical, equine; conditions: Lineweaver-Burk analysis with respect to butyrylthiocholine (BTC)
Protocol: (§3) Kinetics assays of 4i inhibition with AChE and BChE were also carried out as previously described[18]^,[19]. Briefly, varying concentrations of 4i were incubated with AChE and BChE before initiating the enzymatic reactions by addition of 100 µL of a 1:1 (v/v) solution of ATC or BTC (0.4 mM, 0.5 mM, 1 mM, or 2 mM in phosphate buffer) and DTNB (1 mM in phosphate buffer) to all wells. […] Rate vs concentration was fitted to a Lineweaver-Burk plot using GraphPad Prism 9.1.1.

AChE [9] = biological target: T1, AChE; test: Kinetics assay of AChE inhibition (Lineweaver-Burk plot); assay type: biochemical; conditions: Lineweaver-Burk analysis with respect to acetylthiocholine (ATC)
Protocol: as §3

AChE [10] = biological target: T1, AChE; conditions: previously reported; cited from earlier work
[11] = mean of three independent experiments ± SEM, > X = highest soluble concentration tested, read-out: BChE IC50
[12] = mean of three independent experiments ± SEM, > X = highest soluble concentration tested, read-out: AChE IC50

T2 sequence (P81908 whole entry): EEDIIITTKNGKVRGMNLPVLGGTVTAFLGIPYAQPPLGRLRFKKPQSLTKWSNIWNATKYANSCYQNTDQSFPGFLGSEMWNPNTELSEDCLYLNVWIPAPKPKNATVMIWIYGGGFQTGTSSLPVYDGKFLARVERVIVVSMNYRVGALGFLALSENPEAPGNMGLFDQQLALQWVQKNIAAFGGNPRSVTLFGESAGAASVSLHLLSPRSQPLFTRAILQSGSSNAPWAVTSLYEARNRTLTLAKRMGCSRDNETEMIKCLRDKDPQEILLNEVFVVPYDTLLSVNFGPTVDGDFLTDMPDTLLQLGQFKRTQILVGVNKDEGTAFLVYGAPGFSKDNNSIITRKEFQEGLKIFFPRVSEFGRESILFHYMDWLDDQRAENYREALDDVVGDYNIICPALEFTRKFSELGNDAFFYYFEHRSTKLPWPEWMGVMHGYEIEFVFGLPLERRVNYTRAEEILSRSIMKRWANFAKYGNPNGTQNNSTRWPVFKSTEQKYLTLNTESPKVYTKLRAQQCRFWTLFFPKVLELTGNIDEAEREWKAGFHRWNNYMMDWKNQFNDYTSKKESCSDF
T1 sequence (O42275 24-633): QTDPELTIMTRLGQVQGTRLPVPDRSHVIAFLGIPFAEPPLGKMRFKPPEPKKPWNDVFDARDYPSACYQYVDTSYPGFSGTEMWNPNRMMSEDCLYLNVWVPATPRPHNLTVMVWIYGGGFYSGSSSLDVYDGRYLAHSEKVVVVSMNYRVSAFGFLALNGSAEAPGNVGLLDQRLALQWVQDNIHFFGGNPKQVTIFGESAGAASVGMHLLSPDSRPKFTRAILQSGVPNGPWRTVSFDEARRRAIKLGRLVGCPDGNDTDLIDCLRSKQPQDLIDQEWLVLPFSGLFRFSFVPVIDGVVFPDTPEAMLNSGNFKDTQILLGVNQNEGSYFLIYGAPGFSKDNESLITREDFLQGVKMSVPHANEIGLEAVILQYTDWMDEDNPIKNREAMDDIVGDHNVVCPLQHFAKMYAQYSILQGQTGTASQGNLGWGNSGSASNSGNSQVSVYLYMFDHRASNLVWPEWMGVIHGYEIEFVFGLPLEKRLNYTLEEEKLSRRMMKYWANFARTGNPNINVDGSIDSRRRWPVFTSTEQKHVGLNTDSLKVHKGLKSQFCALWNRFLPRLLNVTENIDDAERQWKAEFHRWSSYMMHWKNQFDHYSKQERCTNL

Compound | Selectivity (BChE [2]) | IC50 (BChE [2]; [11]) | IC50 (AChE [3]; [12]) | also measured
CCCCN1C(=O)C(=O)c2ccccc21 [Compound 4d, 1-Butylindoline-2,3-dione] | 7.3 | 73.7 ± 1.3 µM |  | IC50 (AChE [1]): 540 ± 23 µM
CCCn1ccc2ccccc21 [Compound 5c, 1-Propyl-1H-indole] | < 0.6 | > 125 µM | 78.6 ± 2.3 µM | 
CCCCCCCCCCCCN1C(=O)C(=O)c2ccccc21 [N-dodecyl isatin] |  |  |  | Ki (BChE [4]): > 100 µM; Ki (AChE [5]): > 100 µM
CN1C(=O)C(=O)c2ccccc21 [Compound 4a, 1-Methylindoline-2,3-dione] | < 0.6 |  |  | Ki (BChE [4]): > 100 µM; IC50 (AChE [3]): 647 ± 57 µM; IC50 (BChE [2]): > 1000 µM; Ki (AChE [5]): > 100 µM
CCCCCCn1ccc2ccccc21 [Compound 5f, 1-Hexyl-1H-indole] | < 0.6 | > 125 µM | 76.2 ± 1.6 µM | 
CCCCCCCCCCN1C(=O)C(=O)c2ccccc21 [Compound 4j, 1-Decylindoline-2,3-dione] | 12.1 | 5.16 ± 0.66 µM | 62.2 ± 8.5 µM | 
CCCCCCCCCCCCCCCCN1C(=O)C(=O)c2ccccc21 [N-hexadecyl isatin] |  |  |  | Ki (BChE [4]): > 100 µM; Ki (AChE [5]): > 100 µM
CCCCCCCCCCn1ccc2ccccc21 [Compound 5j, 1-Decyl-1H-indole] | < 0.8 | > 62.5 µM | 48.6 ± 1.4 µM | 
CCCCCCCCn1ccc2ccccc21 [Compound 5h, 1-Octyl-1H-indole] | < 0.8 | > 62.5 µM | 49.5 ± 1.8 µM | 
CCCCCCCCN1C(=O)C(=O)c2ccccc21 [Compound 4h, 1-Octylindoline-2,3-dione] | > 7.0 | 17.9 ± 1.8 µM | > 125 µM | 
O=C1Nc2ccccc2C1=O [isatin, indoline-2,3-dione] |  |  |  | IC50 (AChE [1]): > 1000 µM; IC50 (BChE [6]): > 1000 µM
CCCCCCCN1C(=O)C(=O)c2ccccc21 [Compound 4g, 1-Heptylindoline-2,3-dione] | 3.3 | 20.7 ± 3.3 µM | 67.8 ± 7.8 µM | 
CCCCCN1C(=O)C(=O)c2ccccc21 [Compound 4e, 1-Pentylindoline-2,3-dione] | 2.4 | 83.8 ± 3.4 µM | 197 ± 51 µM | 
O=C1C(=O)N(CCCCCN2C(=O)C(=O)c3ccccc32)c2ccccc21 [Compound 1] |  |  |  | mode of inhibition of BChE (BChE [7]): mixed inhibition
CCN1C(=O)C(=O)c2ccccc21 [Compound 4b, 1-Ethylindoline-2,3-dione] | 1.5 | 193 ± 8 µM | 297 ± 35 µM | 
CCCCCCCn1ccc2ccccc21 [Compound 5g, 1-Heptyl-1H-indole] | < 0.6 | > 62.5 µM | 35 ± 10.5 µM | 
CCCCn1ccc2ccccc21 [Compound 5d, 1-Butyl-1H-indole] |  | > 125 µM | > 125 µM | 
CCCCCCCCCn1ccc2ccccc21 [Compound 5i, 1-Nonyl-1H-indole] | < 0.7 | > 62.5 µM | 44.6 ± 1.7 µM | loss of potency towards BChE compared to 4i (BChE [2]; inhibition assay, 5i vs 4i): > 17 fold
Cn1ccc2ccccc21 [Compound 5a, 1-Methyl-1H-indole] | < 0.7 |  |  | IC50 (AChE [3]): 86.7 ± 4.5 µM; IC50 (BChE [2]): > 125 µM
CCCCCCCCCN1C(=O)C(=O)c2ccccc21 [Compound 4i, 1-Nonylindoline-2,3-dione] | 22 and 21.8 | 3.77 ± 0.45 µM | 82.1 ± 8.1 µM | mode of inhibition of BChE (BChE [8]): mixed inhibition; mode of inhibition of AChE (AChE [9]): non-competitive inhibition
CCCCCn1ccc2ccccc21 [Compound 5e, 1-Pentyl-1H-indole] | < 0.8 | > 125 µM | 95 ± 5.9 µM | 
CCCN1C(=O)C(=O)c2ccccc21 [Compound 4c, 1-Propylindoline-2,3-dione] | 2.0 | 257 ± 8 µM | 519 ± 11 µM | 
CCn1ccc2ccccc21 [Compound 5b, 1-Ethyl-1H-indole] | < 0.8 |  |  | IC50 (AChE [3]): 101 ± 6 µM; IC50 (BChE [2]): > 125 µM
CCCCCCN1C(=O)C(=O)c2ccccc21 [Compound 4f, 1-Hexylindoline-2,3-dione] | > 1.4 | 90.8 ± 2.3 µM | > 125 µM | 
C=C1SC(SCCCN2C(=O)C(=O)c3ccccc32)=NC1(C)C [Compound 3] |  |  |  | mode of inhibition of AChE (AChE [10]): non-competitive inhibition; IC50 (AChE [1]): 18.2 µM
